Results reported in patent US9796700B2 (Celgene CAR LLC, priority 2013, dated 2017).
Read-outs that look alike come from different tables or passages of the source. Each block holds one molecule with its values, some of them ahead of it.

Assays:
Erk1 = Erk1 (Homo sapiens (Human), UniProt P27361); test: Protein Mass Modification Assay (intact protein MALDI); type: binding
Summary of the method: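 Percent covalent modification comes from the intact-protein MALDI centroid mass shift, treated versus control, divided by compound MW. Before analysis, human Erk1 was exposed to compound at 10-fold excess over protein for 60 min at room temperature.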

[1] = tested on: ERK1 phosphorylation of its substrate RSK in HT29 cells; test: pRSK MSD Assay in HT29 cells; type: cell-based
Description: The protocol below describes an assay to measure the kinase activity of ERK1 to phosphorylate its substrate, RSK, in the presence of a test compound. This experiment was conducted using a Mesoscale Discovery plate. The day before the assay, HT29 cells were split and plated at 50,000 cells/well in complete growth media. After allowing cells to adhere, the media was removed and replaced with media containing 0.1% FBS and incubated overnight. Blank MDS plates were coated with 25 μl/well RSK capture antibody and incubated at 4° C. overnight. The next day, the media was removed and replaced with 100 μl of media containing a test compound and incubated for 120 minutes at 37° C. The media was removed and replaced with 55 μl of well lysis buffer with protease and phosphatase inhibitors provided in the kit, followed by incubation at 4° C. for 30 minutes. 50 μl of lysate was transferred to a blocked MSD plate, followed by incubation at room temperature for 2 hours under constant shaking. The plate was washed 3 times with MSD wash buffer (cat#R617TX), and 25 μl/well phospho-RSK (pRSK) detection antibody was added with an appropriate Sulfo-tagged anti-species detection antibody diluted in 1% BSA in MSD wash buffer. This mixture was incubated for 1 hour at room temperature under constant shaking. The plate was washed 3 times, and 150 μl 1×MSD read buffer was added, followed by signal detection in an MSD plate reader.

HT-29 cells = test: Measurement of inhibition of cancer cell proliferation (CellTiterGlo); type: cell-based; conditions: Homo sapiens, 72 hours
Description: Measurement of Inhibition of Cancer Cell Proliferation
HT-29 cells were split and 3000 cells in 100 μl of growth medium were added per well of a flat-bottom 96-well plate. A two-fold test compound solution in serum-free RPM1640 was made, starting at 5,000 nM. Then, 3-fold serial dilutions were made across the plate from well 1 to well 11. Well 12, the last well in a row on the plate, was left as untreated control. 100 μl compound solutions were then transferred to the wells, so the total volume of media was 200 μl per well. Plates were returned to a 37° C. incubator, and the cells were cultured for 72 hours. To measure cell proliferation after 72 hours, media was discarded from the plates, 50 μl/well of fresh medium was added, and 50 μl CellTiterGlo solution was added (Promega Cat#G7573). The plate was covered with a dark lid and incubated for 10 min. A sealing tape was applied to the bottom of the plate, and the plate was read in a luminescence plate reader. […] A 2-fold serial dilution was used to generate 8 cell densities from 50,000-390 cells per well in 50 μl media. 50 μl CellTiterGlo was added per well, and the plate was read in a luminescence plate reader after 10 min. The reading was plotted vs. cell number to generate a standard curve and the equation of the curve fit. The compound-treated sample luminescence readings were converted to cell numbers using the equation. The percent of inhibition, using untreated control as 100% growth, was then calculated. GI50 was then calculated by GraphPad Prism.

MEK1 activated ERK1 = MEK1 activated ERK1 (Homo sapiens (Human), UniProt P27361); test: Omnia continuous-read kinase assay for potency against MEK1 activated ERK1; type: biochemical; conditions: MEK1 activated ERK1, WT, ATP at KM
Summary of the method: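 Apparent IC50 came from initial reaction slopes (RFU vs time) plotted against log inhibitor with a variable-slope fit. Reactions were started with ERK1 (4 nM final) added to 50 μM ATP, roughly at its appKM, and 10 μM Sox-conjugated ST17 peptide in 20 mM Tris pH 7.5, 5 mM MgCl2. Fluorescence was monitored every 71 seconds.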

[2] = Homo sapiens, HT-29, HT29 cells, read-out: ERK1 PRSK MSD HT29 EC50
[3] = Homo sapiens, HT-29, read-out: ERK1 PRSK MSD HT29 EC50 (nM)

Chain of MEK1 activated ERK1 (P27361 whole entry): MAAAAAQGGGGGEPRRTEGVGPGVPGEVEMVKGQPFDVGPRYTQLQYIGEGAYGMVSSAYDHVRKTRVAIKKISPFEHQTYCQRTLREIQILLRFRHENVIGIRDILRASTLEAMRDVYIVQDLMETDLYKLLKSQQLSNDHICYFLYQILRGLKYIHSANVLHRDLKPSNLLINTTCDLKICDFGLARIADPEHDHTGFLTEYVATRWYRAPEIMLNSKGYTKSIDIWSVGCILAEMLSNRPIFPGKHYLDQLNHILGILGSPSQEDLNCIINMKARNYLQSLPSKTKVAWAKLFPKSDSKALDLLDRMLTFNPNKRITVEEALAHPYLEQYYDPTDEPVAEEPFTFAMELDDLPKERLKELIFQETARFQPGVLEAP
Chain of Erk1 (P27361 whole entry, looked up): as the sequence (P27361 whole entry) above

- ERK1 Mass Mod (%) (Erk1): E (provided a mass modification of ≧70%)
- EC50 [1, 2]: < 100 nM
- GI50 (HT-29 cells): < 100 nM
SMILES: C=CC(=O)Nc1cc(C)ccc1Nc1nc(Nc2cc(N[C@H]3CC[C@@H](O)CC3)nc(OC)c2)ncc1C(F)(F)F [Compound I-326, N-(2-((2-((2-((cis-4-hydroxycyclohexyl)amino)-6-methoxypyridin-4-yl)amino)-5-(trifluoromethyl)pyrimidin-4-yl)amino)-5-methylphenyl)acrylamide]

- ERK1 Mass Mod (%) (Erk1): E (provided a mass modification of ≧70%)
- GI50 (HT-29 cells): 101 to 500 nM
SMILES: C=CC(=O)Nc1cc(C)ccc1Nc1nc(Nc2ncc(F)c(OC)n2)ncc1C(F)(F)F [Compound I-356, N-(2-((2-((5-fluoro-4-methoxypyrimidin-2-yl)amino)-5-(trifluoromethyl)pyrimidin-4-yl)amino)-5-methylphenyl)acrylamide]

- ERK1 Mass Mod (%) (Erk1): E (provided a mass modification of ≧70%)
- EC50 [1, 2]: < 100 nM
- GI50 (HT-29 cells): < 100 nM
SMILES: C=CC(=O)Nc1ccccc1Nc1nc(Nc2cc(N[C@H]3CC[C@@H](O)CC3)nc(OC)c2)ncc1C(F)(F)F [Compound I-292]

- ERK1 Mass Mod (%) (Erk1): E (provided a mass modification of ≧70%)
- EC50 [1, 2]: < 100 nM
- GI50 (HT-29 cells): 101 to 500 nM
SMILES: C=CC(=O)Nc1cc(C)ccc1Nc1nc(Nc2nc(OC)ncc2C(F)(F)F)ncc1C(F)(F)F [Compound I-355, N-(2-((2-((2-methoxy-5-(trifluoromethyl)pyrimidin-4-yl)amino)-5-(trifluoromethyl)pyrimidin-4-yl)amino)-5-methylphenyl)acrylamide]

- ERK1 Mass Mod (%) (Erk1): E (provided a mass modification of ≧70%)
- EC50 [1, 2]: 101 to 500 nM
- IC50 (MEK1 activated ERK1): 101 to 500 nM
SMILES: C=CC(=O)Nc1cc(C)ccc1Nc1nc(Nc2nc(OC)ncc2C)ncc1C(F)(F)F [Compound I-347, N-(2-((2-((2-methoxy-5-methylpyrimidin-4-yl)amino)-5-(trifluoromethyl)pyrimidin-4-yl)amino)-5-methylphenyl)acrylamide]

- ERK1 Mass Mod (%) (Erk1): E (provided a mass modification of ≧70%)
- EC50 [1, 2]: 101 to 500 nM
- IC50 (MEK1 activated ERK1): < 100 nM
SMILES: C=CC(=O)Nc1ccccc1Nc1nc(Nc2cc(OC)nc(N3CCN(C)CC3)c2)ncc1C(F)(F)F [Compound I-324, N-(2-((2-((2-methoxy-6-(4-methylpiperazin-1-yl)pyridin-4-yl)amino)-5-(trifluoromethyl)pyrimidin-4-yl)amino)phenyl)acrylamide]

Continued, molecule first:

SMILES: C=CC(=O)N(C)c1ccccc1Nc1nc(N[C@H]2CC[C@H](O)CC2)ncc1Cl [Compound I-104, N-(2-((5-chloro-2-(trans-(4-hydroxycyclohexyl)amino)pyrimidin-4-yl)amino)phenyl)-N-methylacrylamide]
- ERK1 Mass Mod (%) (Erk1): E (provided a mass modification of ≧70%)
- EC50 [1, 2]: 501 to 999 nM
- GI50 (HT-29 cells): 501 to 999 nM

SMILES: C=CC(=O)Nc1ccccc1Nc1nc(Nc2ccc(N3CCN(C(C)=O)CC3)cc2OC)ncc1C(F)(F)F [Compound I-66, N-(2-((2-((4-(4-Acetylpiperazin-1-yl)-2-methoxyphenyl)amino)-5-(trifluoromethyl)pyrimidin-4-yl)amino)phenyl)acrylamide]
- ERK1 Mass Mod (%) (Erk1): E (key: E: provided a mass modification of ≧70%; F: provided a mass modification of 31-69%; G: proived a mass modification ≦30%)
- GI50 (HT-29 cells): 101 to 500 nM

SMILES: C=CC(=O)Nc1cc(F)ccc1Nc1nc(N[C@H]2CC[C@@H](F)CC2)ncc1C(F)(F)F [Compound I-8, N-(5-fluoro-2-((2-((cis-4-fluorocyclohexyl)amino)-5-(trifluoromethyl)pyrimidin-4-yl)amino)phenyl)acrylamide]
- ERK1 Mass Mod (%) (Erk1): E (key: E: provided a mass modification of ≧70%; F: provided a mass modification of 31-69%; G: proived a mass modification ≦30%)
- EC50 [1, 3]: < 100 nM
- GI50 (HT-29 cells): 501 to 999 nM

SMILES: C=CC(=O)Nc1cc(C)ccc1Nc1nc(Nc2cc(NC3CCC(C)(O)CC3)nc(OC)c2)ncc1C(F)(F)F (stereo not drawn) [Compound I-327, N-(2-((2-((2-((trans-4-hydroxy-4-methylcyclohexyl)amino)-6-methoxypyridin-4-yl)amino)-5-(trifluoromethyl)pyrimidin-4-yl)amino)-5-methylphenyl)acrylamide]
- ERK1 Mass Mod (%) (Erk1): E (key: E: provided a mass modification of ≧70%; F: provided a mass modification of 31-69%; G: proived a mass modification ≦30%)
- EC50 [1, 3]: < 100 nM
- GI50 (HT-29 cells): < 100 nM

SMILES: C=CC(=O)Nc1cc(OC)ccc1Nc1nc(Nc2ccc(N3CCN(C(C)=O)CC3)cc2OC)ncc1Cl [Compound I-152, N-(2-((2-((4-(4-acetylpiperazin-1-yl)-2-methoxyphenyl)amino)-5-chloropyrimidin-4-yl)amino)-5-methoxyphenyl)acrylamide]
- ERK1 Mass Mod (%) (Erk1): E (provided a mass modification of ≧70%)
- GI50 (HT-29 cells): 501 to 999 nM

SMILES: C=CC(=O)Nc1ccccc1Nc1nc(N[C@H]2CC[C@H](OC)CC2)ncc1Cl [Compound I-100]
- ERK1 Mass Mod (%) (Erk1): F (provided a mass modification of 31-69%)
- EC50 [1, 2]: 501 to 999 nM
- GI50 (HT-29 cells): > 1000 nM

SMILES: C/C=C/S(=O)(=O)Nc1cc(F)ccc1Nc1nc(N[C@H]2CCCN(C(=O)CO)C2)ncc1C(F)(F)F [Compound I-48, (S,E)-N-(5-Fluoro-2-((2-((1-(2-hydroxyacetyl)piperidin-3-yl)amino)-5-(trifluoromethyl)pyrimidin-4-yl)amino)phenyl)prop-1-ene-1-sulfonamide]
- ERK1 Mass Mod (%) (Erk1): G (proived a mass modification ≦30%)
- EC50 [1, 2]: > 1000 nM
- IC50 (MEK1 activated ERK1): < 100 nM

SMILES: C=C(C)S(=O)(=O)Nc1ccccc1Nc1nc(NC2CCC(=O)CC2)ncc1C(F)(F)F [Compound I-40, N-(2-((2-((4-Oxocyclohexyl)amino)-5-(trifluoromethyl)pyrimidin-4-yl)amino)phenyl)prop-1-ene-2-sulfonamide]
- ERK1 Mass Mod (%) (Erk1): F (provided a mass modification of 31-69%)
- EC50 [1, 2]: > 1000 nM
- IC50 (MEK1 activated ERK1): < 100 nM

SMILES: C=CC(=O)Nc1cc(C)ccc1Nc1nc(N[C@H]2CCCN(C(=O)CC)C2)ncc1C(F)(F)F [Compound I-41, (S)—N-(5-Methyl-2-((2-((1-propionylpiperidin-3-yl)amino)-5-(trifluoromethyl)pyrimidin-4-yl)amino)phenyl)acrylamide]
- ERK1 Mass Mod (%) (Erk1): E (provided a mass modification of ≧70%)
- EC50 [1, 2]: 101 to 500 nM
- IC50 (MEK1 activated ERK1): < 100 nM

SMILES: C=CC(=O)Nc1ccccc1Nc1nc(Nc2cc(C(=O)NOCCO)ccc2C)ncc1Cl [Compound I-198, 3-((4-((2-acrylamidophenyl)amino)-5-chloropyrimidin-2-yl)amino)-N-(2-hydroxyethoxy)-4-methylbenzamide]
- ERK1 Mass Mod (%) (Erk1): E (provided a mass modification of ≧70%)
- GI50 (HT-29 cells): 101 to 500 nM

SMILES: C=CC(=O)Nc1ccccc1Nc1nc(Nc2ccc(N3CCN(C(C)=O)CC3)cc2OC)ncc1Cl [Compound I-149, N-(2-((2-((4-(4-acetylpiperazin-1-yl)-2-methoxyphenyl)amino)-5-chloropyrimidin-4-yl)amino)phenyl)acrylamide]
- ERK1 Mass Mod (%) (Erk1): E (key: E: provided a mass modification of ≧70%; F: provided a mass modification of 31-69%; G: proived a mass modification ≦30%)
- GI50 (HT-29 cells): 101 to 500 nM

SMILES: C=CC(=O)Nc1ccccc1Nc1nc(N[C@H]2CC[C@H](F)CC2)ncc1C(F)(F)F [Compound I-111, N-(2-((2-(trans-(4-fluorocyclohexyl)amino)-5-(trifluoromethyl)pyrimidin-4-yl)amino)phenyl)acrylamide]
- ERK1 Mass Mod (%) (Erk1): E (provided a mass modification of ≧70%)
- EC50 ([1]; HT29 cells, read-out: ERK1 PRSK MSD HT29 EC50): 101 to 500 nM
- IC50 (MEK1 activated ERK1): 101 to 500 nM
